Earlier results in US20160228670A1, “SYSTEM FOR NITRIC OXIDE INHALATION” (ADVANCED […] (AIT) LTD., priority 2013, published 2016).
Like-named read-outs stand apart in the source and are kept apart here.

[N]=O [NO, nitric oxide]
t1/2 of NO to NO2 (NO concentration in air 1 ppm): 3500 min | t1/2 of NO to NO2 (NO concentration in air 10 ppm): 350 min | t1/2 of NO to NO2 (NO concentration in air 100 ppm): 35 min | t1/2 of NO to NO2 (NO concentration in air 1,000 ppm): 3.5 min | t1/2 of NO to NO2 (NO concentration in air 10,000 ppm): 0.35 min | t1/2 of NO to NO2 (NO concentration in air 20,000 ppm): 0.175 min
